In brackets after ≈: the same amount, converted by molar mass. Like-named read-outs stand apart in the source and are kept apart here. Where only a bound is given, the exact number is not on record here.

Broadly, the pKa is the pH at which an ionisable group is half protonated.

One data set has as its system Shigella sp. Nature of the data set: Antibiotic activity (MIC), Gradient Plate in vitro method, Shigella sp. It is filed as cell-based. The conditions noted are these: read-out: Minimum Inhibitory Concentration. The source says:
(§1) The antibiotic activity of the cephalosporin compounds of the present invention is illustrated by the data presented in Table I for representative compounds. The values in the table are the minimum inhibitory concentrations (MIC) for the test compounds against the indicated microorganisms. The MIC values were obtained in the Gradient Plate in vitro method for determining antibiotic activity.

Another data set deals with Escherichia coli. Nature of the data set: Antibiotic activity (MIC), Gradient Plate in vitro method, Escherichia coli. The conditions noted are these: read-out: Minimum Inhibitory Concentration. The class given is cell-based. The source says:
(§2) The values in the table are the minimum inhibitory concentrations (MIC) for the test compounds against the indicated microorganisms. The MIC values were obtained in the Gradient Plate in vitro method for determining antibiotic activity.

The next data set concerns Klebsiella pneumoniae. Nature of the data set: Antibiotic activity (MIC), Gradient Plate in vitro method, Klebsiella pneumoniae. It is filed as cell-based. As to conditions: read-out: Minimum Inhibitory Concentration.
Description: as §2

In the next data set the test system is Aerobacter Aerogenes. Nature of the data set: Antibiotic activity (MIC), Gradient Plate in vitro method, Aerobacter Aerogenes. It is filed as cell-based. As to conditions: Klebsiella aerogenes, read-out: Minimum Inhibitory Concentration.
Description: as §2

The subject of a further data set is Salmonella heidelberg. Nature of the data set: Antibiotic activity (MIC), Gradient Plate in vitro method, Salmonella heidelberg. The class given is cell-based. As to conditions: Salmonella enterica, read-out: Minimum Inhibitory Concentration.
Description: as §2

Another data set concerns Pseudomonas Aeruginosa. Nature of the data set: Antibiotic activity (MIC), Gradient Plate in vitro method, Pseudomonas Aeruginosa. The class given is cell-based. The conditions noted are these: read-out: Minimum Inhibitory Concentration.
Description: as §2

The next data set relates to Serratia marcescens. Nature of the data set: Antibiotic activity (MIC), Gradient Plate in vitro method, Serratia marcescens. The conditions noted are these: read-out: Minimum Inhibitory Concentration. The class given is cell-based.
Description: as §1

The subject of data set [1] is V41 (penicillin resistant Staphylococcus). Nature of the data set: Antibiotic activity (MIC), Gradient Plate in vitro method, V41. It is filed as cell-based. The conditions noted are these: Gradient Plate in vitro; V41, penicillin resistant Staphylococcus; read-out: Minimum Inhibitory Concentration.
Description: as §1
(§3) ^1 Test organisms V41, V32, and V84 are penicillin resistant

For data set [2], the system named is V32 (penicillin resistant Staphylococcus). Nature of the data set: Antibiotic activity (MIC), Gradient Plate in vitro method, V32. The class given is cell-based. As to conditions: read-out: Minimum Inhibitory Concentration.
Description: as §1, §3

The test system of data set [3] is X466 (methicillin resistant Staphylococcus). Nature of the data set: Antibiotic activity (MIC), Gradient Plate in vitro method, X466. The class given is cell-based. The conditions noted are these: read-out: Minimum Inhibitory Concentration. The text has this:
The antibiotic activity of the cephalosporin compounds of the present invention is illustrated by the data presented in Table I for representative compounds. The values in the table are the minimum inhibitory concentrations (MIC) for the test compounds against the indicated microorganisms. The MIC values were obtained in the Gradient Plate in vitro method for determining antibiotic activity. […]

The subject of data set [4] is V84 (penicillin resistant Staphylococcus). Nature of the data set: Antibiotic activity (MIC), Gradient Plate in vitro method, V84. The class given is cell-based. The conditions noted are these: Gradient Plate in vitro; V84, penicillin resistant Staphylococcus; read-out: Minimum Inhibitory Concentration.
Description: as §1, §3

A further data set in a line: Titration (pKa). It is filed as physicochemical. As to conditions: 66% dmf-34% h2o, titration (66% DMF-34% H2O).
Setting [5] is: Gradient Plate in vitro, V32, penicillin resistant Staphylococcus.
The mark [6] stands for this setting: first pKa, read-out: pKa (first value).
Where [7] appears, read: second pKa, read-out: pKa (second value).

Turning to `Cn1nnnc1SCC1=C(C(=O)O)N2C(=O)C(NC(=O)[C@H](NC(=O)c3cccc(O)c3O)c3ccccc3)C2SC1` (stereo partly drawn) [Example 1, 7-[D-[2-Phenyl-2-[(2,3-dihydroxybenzoyl)amino]acetyl]amino]-3-[[(1-methyltetrazol-5-yl)thio]methyl]-3-cephem-4-carboxylic acid], the MIC turned out to be 3.7 µg/mL (≈ 6.19 µM) in the data set with Shigella sp.; 14.8 µg/mL (≈ 24.8 µM) with Escherichia coli; 10 µg/mL (≈ 16.7 µM) in the data set with Klebsiella pneumoniae; 5.4 µg/mL (≈ 9.04 µM) in the data set with Aerobacter Aerogenes; 0.5 µg/mL (≈ 0.837 µM) in the data set with Salmonella heidelberg; 13.8 µg/mL (≈ 23.1 µM) in the data set on Pseudomonas Aeruginosa. The MIC in the data set with Serratia marcescens was 16.4 µg/mL (≈ 27.4 µM); in data set [1] it was 15.1 µg/mL (≈ 25.3 µM); in [2] (setting [5]) it was 132 µg/mL (≈ 221 µM); in data set [3], 136 µg/mL (≈ 228 µM); in data set [4], 10.3 µg/mL (≈ 17.2 µM). Further, the pKa in “Titration (pKa)” (setting [6]) turned out to be 5.31; in the data set “Titration (pKa)” (setting [7]), 8.73.

For the compound `Cn1nnnc1SCC1=C(C(=O)O)N2C(=O)C(NC(=O)[C@H](NC(=O)c3ccc(O)c(O)c3)c3ccc(O)cc3)C2SC1` (stereo partly drawn) [Example 2, 7-[D-[2-(4-Hydroxyphenyl)-2-[(3,4-dihydroxybenzoyl)amino]acetyl]amino]-3-[[(1-methyltetrazol-5-yl)thio]methyl]-3-cephem-4-carboxylic acid], the MIC in the data set with Shigella sp. stood at 1 µg/mL (≈ 1.63 µM); with Escherichia coli it was 8.5 µg/mL (≈ 13.9 µM); with Klebsiella pneumoniae, 0.8 µg/mL (≈ 1.3 µM); in the data set with Aerobacter Aerogenes, 4 µg/mL (≈ 6.52 µM); in the data set on Salmonella heidelberg, 0.2 µg/mL (≈ 0.326 µM); with Pseudomonas Aeruginosa it was 4.9 µg/mL (≈ 7.99 µM). Moreover, the MIC is above 200 µg/mL with Serratia marcescens; 3.6 µg/mL (≈ 5.87 µM) in data set [1]; 3.8 µg/mL (≈ 6.19 µM) in [2] (setting [5]); 8.4 µg/mL (≈ 13.7 µM) in data set [3]; 3.2 µg/mL (≈ 5.21 µM) in data set [4]. Besides, the pKa in “Titration (pKa)” (setting [6]) was found to be 4.1; in “Titration (pKa)” (setting [7]), 10.9.

Take `Cn1nnnc1SCC1=C(C(=O)O)N2C(=O)C(NC(=O)[C@H](NC(=O)c3cccc(O)c3O)c3ccc(O)cc3)C2SC1` (stereo partly drawn) [Example 3, 7-[D-[2-(4-Hydroxyphenyl)-2-[(2,3-dihydroxybenzoyl)amino]acetyl]amino]-3-[[(1-methyltetrazol-5-yl)thio]methyl]-3-cephem-4-carboxylic acid]: the MIC was found to be 7 µg/mL (≈ 11.4 µM) in the data set on Shigella sp.; 13.2 µg/mL (≈ 21.5 µM) with Escherichia coli; 4.1 µg/mL (≈ 6.68 µM) with Klebsiella pneumoniae; 6.6 µg/mL (≈ 10.8 µM) in the data set on Aerobacter Aerogenes; 1 µg/mL (≈ 1.63 µM) in the data set on Salmonella heidelberg; 5.3 µg/mL (≈ 8.64 µM) in the data set with Pseudomonas Aeruginosa. Also, the MIC was determined as 80 µg/mL (≈ 130 µM) with Serratia marcescens; 23 µg/mL (≈ 37.5 µM) in data set [1]; 23 µg/mL (≈ 37.5 µM) in data set [2] (setting [5]); 130 µg/mL (≈ 212 µM) in data set [3]; 22 µg/mL (≈ 35.9 µM) in data set [4]. Further, the values for the pKa in the data set “Titration (pKa)” (setting [6]) and in “Titration (pKa)” (setting [7]) were 5.02 and 8.83, respectively.

`Cn1nnnc1SCC1=C(C(=O)O)N2C(=O)C(NC(=O)[C@H](NC(=O)c3ccccc3O)c3ccc(O)cc3)C2SC1` (stereo partly drawn) [Example 4, 7-[D-[2-(4-Hydroxyphenyl)-2-[(2-hydroxybenzoyl)amino]acetyl]amino]-3-[[(1-methyltetrazol-5-yl)thio]methyl]-3-cephem-4-carboxylic acid]: the MIC in the data set with Shigella sp. came out at 33 µg/mL (≈ 55.2 µM); in the data set with Escherichia coli, 60 µg/mL (≈ 100 µM); in the data set with Klebsiella pneumoniae it was 29 µg/mL (≈ 48.5 µM); in the data set on Aerobacter Aerogenes, 49 µg/mL (≈ 82 µM); with Salmonella heidelberg it was 32.5 µg/mL (≈ 54.4 µM); with Pseudomonas Aeruginosa, 104 µg/mL (≈ 174 µM). The MIC in the data set with Serratia marcescens is above 200 µg/mL; in data set [1], 4.6 µg/mL (≈ 7.7 µM); in data set [2] (Staphylococcus), 4 µg/mL (≈ 6.69 µM); in data set [3] it was 41 µg/mL (≈ 68.6 µM); in data set [4] it was 2.2 µg/mL (≈ 3.68 µM). The values for the pKa in the data set “Titration (pKa)” (setting [6]) and in “Titration (pKa)” (setting [7]) were 5.09 and 10, respectively.

Consider `Cc1nnc(SCC2=C(C(=O)O)N3C(=O)C(NC(=O)[C@H](NC(=O)c4c(O)cccc4O)c4ccc(O)cc4)C3SC2)s1` (stereo partly drawn) [Example 5, 7-[D-[2-(4-Hydroxyphenyl)-2-[(2,6-dihydroxybenzoyl)-amino]acetyl]amino]-3-[[(5-methyl-1,3,4-thiadiazol-2-yl)thio]methyl]-3-cephem-4-carboxylic acid], for which the MIC in the data set with Shigella sp. worked out at 48 µg/mL (≈ 76.2 µM); in the data set with Escherichia coli it was 96 µg/mL (≈ 152 µM); in the data set on Klebsiella pneumoniae it was 29.5 µg/mL (≈ 46.8 µM); in the data set with Aerobacter Aerogenes, 110 µg/mL (≈ 175 µM); in the data set on Salmonella heidelberg it was 82 µg/mL (≈ 130 µM); with Pseudomonas Aeruginosa it was 27.5 µg/mL (≈ 43.7 µM). The MIC in the data set on Serratia marcescens is above 200 µg/mL; in [1], 3.7 µg/mL (≈ 5.88 µM); in data set [2] (setting [5]) it was 4.6 µg/mL (≈ 7.31 µM); in data set [3], 60 µg/mL (≈ 95.3 µM); in [4], 1.3 µg/mL (≈ 2.06 µM). The pKa amounted to 5.2 in “Titration (pKa)” (setting [6]) and 9.13 in “Titration (pKa)” (setting [7]).
